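These data come from cells grown in 96-well plates and exposed to compound for 48 hours at five concentrations. GI50 marks 50% less growth.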 Activity calls are given as the source filed them. Rule as the data show it: active = GI50 up to about 1.1 µM and inactive = higher.
What was measured:
Assay in all cases: growth of human tumour cells (NCI), 48 h
HCC 2998 = system: HCC 2998
UACC-257 = system: UACC-257
NCI-H23 = system: NCI-H23
MOLT-4 = system: MOLT-4
HT-29 = system: HT-29
SNB-75 = system: SNB-75
A498 = system: A498
SNB-19 = system: SNB-19
786-0 = system: 786-0
CCRF-CEM = system: CCRF-CEM
KM12 = system: KM12
BT-549 = system: BT-549
OVCAR-3 = system: OVCAR-3
SK-OV-3 = system: SK-OV-3
ACHN = system: ACHN
TK-10 = system: TK-10
RPMI-8226 = system: RPMI-8226
SK-MEL-28 = system: SK-MEL-28
SW-620 = system: SW-620
SK-MEL-5 = system: SK-MEL-5

Row | SMILES | GI50 (HCC 2998) | GI50 (UACC-257) | GI50 (NCI-H23) | GI50 (MOLT-4) | GI50 (HT-29) | GI50 (SNB-75) | GI50 (A498) | GI50 (SNB-19) | GI50 (786-0) | GI50 (CCRF-CEM) | GI50 (KM12) | GI50 (BT-549) | GI50 (OVCAR-3) | GI50 (SK-OV-3) | GI50 (ACHN) | GI50 (TK-10) | GI50 (RPMI-8226) | GI50 (SK-MEL-28) | GI50 (SW-620) | GI50 (SK-MEL-5)
1 | Cc1cc2oc(C)c(S(=O)(=O)NC(=O)Nc3ccc(Cl)cc3)c(=O)c2c(=O)o1 | > 100 µM (inactive) | > 100 µM (inactive) | > 100 µM (inactive) | > 100 µM (inactive) | > 100 µM (inactive) | > 100 µM (inactive) | > 100 µM (inactive) | > 100 µM (inactive) | > 100 µM (inactive) | > 100 µM (inactive) | > 100 µM (inactive) | > 100 µM (inactive) | > 100 µM (inactive) | > 100 µM (inactive) | 59.4 µM (inactive) | > 100 µM (inactive) | > 100 µM (inactive) | > 100 µM (inactive) | > 100 µM (inactive) | > 100 µM (inactive)
2 | N#Cc1c(O)c(C=O)c(=O)n2c1[nH]c1ccccc12 | > 100 µM (inactive) | > 100 µM (inactive) | > 100 µM (inactive) | > 100 µM (inactive) | > 100 µM (inactive) | > 100 µM (inactive) | > 100 µM (inactive) | > 100 µM (inactive) | > 100 µM (inactive) | > 100 µM (inactive) | > 100 µM (inactive) | > 100 µM (inactive) | > 100 µM (inactive) | > 100 µM (inactive) | > 100 µM (inactive) | > 100 µM (inactive) | > 100 µM (inactive) | > 100 µM (inactive) | > 100 µM (inactive) | > 100 µM (inactive)
3 | Cc1cnccc1/N=N/c1ccc(N(C)C)cc1 | 13.5 µM (inactive) | 22.3 µM (inactive) | 24.4 µM (inactive) | 31.3 µM (inactive) | 23.1 µM (inactive) | 14.5 µM (inactive) | 28.3 µM (inactive) | 40 µM (inactive) | 42.2 µM (inactive) | 37 µM (inactive) | 20.3 µM (inactive) | 15.9 µM (inactive) | 19.6 µM (inactive) | 16.7 µM (inactive) | 20.5 µM (inactive) | 17.2 µM (inactive) | 18.5 µM (inactive) | 22.3 µM (inactive) | 22.4 µM (inactive) | 15 µM (inactive)
4 | COc1c2c(c3c(c1OC)c(=O)c1ccccc1n3C)OCO2 | > 100 µM (inactive) | > 100 µM (inactive) | > 100 µM (inactive) | > 100 µM (inactive) | > 100 µM (inactive) | > 100 µM (inactive) | > 100 µM (inactive) | > 100 µM (inactive) | > 100 µM (inactive) | > 100 µM (inactive) | > 100 µM (inactive) | > 100 µM (inactive) | > 100 µM (inactive) | > 100 µM (inactive) | > 100 µM (inactive) | > 100 µM (inactive) | > 100 µM (inactive) | > 100 µM (inactive) | > 100 µM (inactive) | > 100 µM (inactive)
5 | O=C1C(Cl)=C(OCCCCl)C(=O)c2c(O)ccc(O)c21 | 14.8 µM (inactive) | 2.32 µM (inactive) | 2.19 µM (inactive) | 0.189 µM (active) | 2.03 µM (inactive) | 2 µM (inactive) | 15.2 µM (inactive) | 18.3 µM (inactive) | 2.04 µM (inactive) | 0.0316 µM (active) | 13.1 µM (inactive) | 1.92 µM (inactive) | 2.42 µM (inactive) | 21.5 µM (inactive) | 5.07 µM (inactive) | 3.12 µM (inactive) | 1.37 µM (inactive) | 2.08 µM (inactive) | 1.35 µM (inactive) | 1.73 µM (inactive)
6 | O=P1(N(CCCl)CCCl)NCCCO1 (stereo not given) [CYCLOPHOSPHAMIDE ANHYDROUS] | 193 µM (inactive) | 211 µM (inactive) | > 235 µM (inactive) | 249 µM (inactive) | > 226 µM (inactive) | > 232 µM (inactive) | > 238 µM (inactive) | > 250 µM (inactive) | > 250 µM (inactive) | 200 µM (inactive) | > 238 µM (inactive) | > 250 µM (inactive) | > 243 µM (inactive) | 248 µM (inactive) | > 250 µM (inactive) | > 250 µM (inactive) | > 250 µM (inactive) | > 250 µM (inactive) | > 250 µM (inactive) | > 242 µM (inactive)
7 | CC(=O)OCC1OC(n2c(S)nc(-c3ccccc3)c(C#N)c2=O)C(OC(C)=O)C(OC(C)=O)C1OC(C)=O (stereo not given) | > 100 µM (inactive) | > 100 µM (inactive) | > 100 µM (inactive) | > 100 µM (inactive) | > 100 µM (inactive) | 98.9 µM (inactive) | > 100 µM (inactive) | > 100 µM (inactive) | > 100 µM (inactive) | > 100 µM (inactive) | > 100 µM (inactive) | > 100 µM (inactive) | > 100 µM (inactive) | > 100 µM (inactive) | > 100 µM (inactive) | > 100 µM (inactive) | > 100 µM (inactive) | > 100 µM (inactive) | > 100 µM (inactive) | > 100 µM (inactive)
8 | CCOC(=O)c1cn(-c2ccccc2)c(=S)n2c1nc1ccccc12 | > 52.7 µM (inactive) | 40 µM (inactive) | 45.7 µM (inactive) | 4.65 µM (inactive) | 30.5 µM (inactive) | > 71.6 µM (inactive) | 23.9 µM (inactive) | > 66.2 µM (inactive) | 43.4 µM (inactive) | 5.53 µM (inactive) | 33.7 µM (inactive) | 41.8 µM (inactive) | 52.2 µM (inactive) | > 100 µM (inactive) | 56.1 µM (inactive) | 96.8 µM (inactive) | 18.1 µM (inactive) | 28.2 µM (inactive) | 52.6 µM (inactive) | 23.1 µM (inactive)
9 | N=c1oc2ccc(Cl)cc2cc1C(=O)NCc1ccccc1 | > 100 µM (inactive) | > 100 µM (inactive) | > 100 µM (inactive) | 31.2 µM (inactive) | > 100 µM (inactive) | 22.4 µM (inactive) | 63.5 µM (inactive) | > 100 µM (inactive) | > 100 µM (inactive) | 21.5 µM (inactive) | 43.4 µM (inactive) | 23.7 µM (inactive) | > 100 µM (inactive) | > 100 µM (inactive) | > 91.8 µM (inactive) | > 100 µM (inactive) | > 89.3 µM (inactive) | > 100 µM (inactive) | > 100 µM (inactive) | > 100 µM (inactive)
10 | Oc1c(Cl)c(Cl)c(Cl)c(Cl)c1Cl [PENTACHLOROPHENOL] | > 100 µM (inactive) | > 100 µM (inactive) | 21.8 µM (inactive) | 20.6 µM (inactive) | 21.2 µM (inactive) | 22.9 µM (inactive) | 19 µM (inactive) | 30.3 µM (inactive) | 21 µM (inactive) | 21.3 µM (inactive) | 19.5 µM (inactive) | 25.6 µM (inactive) | 18.7 µM (inactive) | 45.6 µM (inactive) | 18.9 µM (inactive) | > 100 µM (inactive) | 22.1 µM (inactive) | 24 µM (inactive) | 24.5 µM (inactive) | 18.3 µM (inactive)
